Read-outs that look alike come from different tables or passages of the source. Where only a bound is given, the exact number is not on record here.

What all share (assay type): cell-based
The subject of assay [1] is Bovine microvascular endothelial cells (BMEC). Briefly: Sulphorhodamine B (SRB) cytotoxicity test on BMEC. To be noted: for IC50: concentration corresponding to 50% of cytotoxic activity, read-out: Cytototoxicity on BMEC IC50; for Cytototoxicity on BMEC IC0: maximum non-cytotoxic concentration. As for the experimental part:
The evaluation of the intrinsic toxicity of chrysanthone A was done by comparing it with suramin using the Sulphorhodamine B (SRB) cytotoxicity test described here below.
Bovine microvascular endothelial cells (BMEC) were seeded, at a density of 3000 cells/well, on 96-well microtiter plates, in normal culture medium (200 μl/well). On the next day the study compounds were added to the wells in scalar concentrations. On the third day after seeding the medium was removed and three washings with PBS were performed. At the end of the washings, 200 μl of culture medium were added to each well and the plates were placed in an incubator at 37° C., 5% CO2 for the next 48 hours. At the end of this incubation period, the medium was removed and the cells were treated cold for 1 hour with a solution of 15% trichloroacetic acid (TCA). The wells were washed three times with distilled H2O by immersion of the plate and removal by overturning. 200 μl/well of 0.4% SRB in 1% acetic acid were added to the plates and incubated for 30 min. The wells were washed three times with 1% acetic acid, and lastly 200 μl/well of Tris 10 mM were added.
The staining of the well was quantified by spectrophotometric readout at a wavelength of 540 nm. Comparison of the values obtained in the wells containing the study compound and the controls made it possible to determine the IC50 and IC0 of the compound according to the invention, defined respectively as the concentration corresponding to 50% of cytotoxic activity (IC50) and the maximum non-cytotoxic concentration (IC0).
(§1) This test was conducted using the procedure described in Example 1.
(In general: The SRB assay estimates cell density from bound dye.)

The test system of assay [2] is BMEC endothelial cells. Briefly: Chemotaxis test using the Boyden chamber (BMEC migration towards bovine serum).
Source text: This test is the first screening assay for compounds with potential angiogenesis inhibiting or facilitating activity (Glaser B. M. et al, Nature, 1980; 288:483-4).
Chrysanthone A, one of the compounds to which the invention relates, was subjected to a chemotaxis test using the Boyden chamber (Werner F., Goodwin R. H. and Leonard E. J., Journal of Immunology Methods, 1980; 33:239-247).
The realisation of this in-vitro assay has entailed the development of techniques for the isolation and culture of bovine endothelial cells of both the aorta (BAEC) and the adrenal marrow (BMEC) as well as the identification of suitable reference compounds. One of the advantages of the use of the Boyden chamber for the chemotaxis test is the possibility of obtaining quantitative data. The Boyden chamber consists in an upper and a lower well separated by a polycarbonate filter with 8 μm pores. A solution containing the chemoattractant is placed in the lower well, while the cells are inserted in the upper well. After a period of incubation, the cells which have migrated across the filter in response to the chemotactic stimulus are counted on the undersurface of the membrane.
In the chemotaxis test, the chemoattractant selected was bovine serum (1% in DMEM culture medium). The BMEC endothelial cells were resuspended in DMEM with 1% bovine serum albumin (BSA) and analysed in this test for 4 hours. The chemotaxis was quantified by direct cell count under the optical microscope. The migration percentages presented in the chemotaxis table expressed as “% migration” were calculated according to the formula: (T−C/C)×100 where T=mean number (n^o) of cells migrating in the test sample, and C=mean number of cells migrating in the control.
A control consisting of cells not treated with the study compound, migrating towards the serum, was included in every chemotaxis experiment.
The mean number of cells migrating refers to the readings of 5 microscopic fields/well in 4 independent chemotaxis wells per sample.
Normally, suramin is used as the reference compound in chemotaxis tests.
as §1

For assay [3], the system named is MCF-7 line. Briefly: SRB cytotoxicity test on human tumour line MCF-7. The note with it: MCF7, MCF-7 human tumour line.
For assay [4], the system named is LoVo-Dx line. Briefly: SRB cytotoxicity test on human tumour line LoVo-Dx.
Assay [5] concerns LoVo line. Briefly: SRB cytotoxicity test on human tumour line LoVo.
The test system of assay [6] is Mes-Sa line. Briefly: SRB cytotoxicity test on human tumour line Mes-Sa.
Where [7] appears, read: Bos taurus, Endothelial cell, compound at its IC0 (chrysanthone A 0.4 μM, two independent experiments; chrysanthone C 10 μM).

As for `CO[C@@H]1CC(=O)c2c(cc3c(c2O)COC(C)(O)C3)[C@@H]1O` (stereo partly drawn) [Chrysanthone C], in assay [1] (Bos taurus, Endothelial cell), the IC50 (commonly the point on the concentration scale where inhibition reaches its midpoint) was found to be 35 µM. In assay [1], the “Cytototoxicity on BMEC IC0” value was 10 µM. Also, the inhibition (as a rule, the drop in the measured response relative to a control, in per cent) at 10 µM in assay [2] (setting [7]) was found to be 54%.
Regarding `Cc1ccc(C(=O)Nc2ccc(S(=O)(=O)O)c3cc(S(=O)(=O)O)cc(S(=O)(=O)O)c23)cc1NC(=O)c1cccc(NC(=O)Nc2cccc(C(=O)Nc3cc(C(=O)Nc4ccc(S(=O)(=O)O)c5cc(S(=O)(=O)O)cc(S(=O)(=O)O)c45)ccc3C)c2)c1` [Suramin, reference compound], the IC50 in assay [1] (Bos taurus, Endothelial cell) was over 500 µM. For the same compound, in assay [1], the “Cytototoxicity on BMEC IC0” value worked out at 100 µM. The “% Migration IC0” value in assay [2] (1% bovine serum chemoattractant, 4 hours, compound at its IC0 (concentration printed in cell), (T−C/C)×100 vs untreated control) was 100 μM = −58%.
Take `CO[C@@H]1CC(=O)c2c(cc3cc(C)ncc3c2O)[C@@H]1O` [Chrysanthone A]: the IC50 in assay [3] is 11.6 µM; in assay [1] (listed as chrysanthone A), 1.5 µM; in assay [1] it was 35 µM; in assay [4], 80 µM; in assay [5] it was 15.8 µM; in assay [6] it was 7.8 µM. In assay [1], the “Cytototoxicity on BMEC IC0” value stood at 0.4 µM. In assay [2] (setting [7]), this compound displayed an inhibition at 0.4 µM of 44%. Further, in assay [2] (compound at its IC0 (chrysanthone A 0.4 μM, two independent experiments; chrysanthone C 10 μM)), the “inhibition of BMEC migration” value is on record as 52%±2.8.

The record behind these values is US6887883B2, “Use of natural chrysanthone compounds having antiangiogenic activity” (Sigma-Tau Industrie Farmaceutiche Riunite S.p.A., priority 2000, dated 2005).
